From patent US6566047B1, “Method for identifying neurite-growth promoting agents” (The Regents of the University of Colorado, priority 1998, dated 2003)

How the values were obtained:
MAT-Lu cells = assay: Boyden chamber motility assay, MAT-Lu cells; type: cell-based, rat; conditions: for Mat-Lu cells crossing filter in % of control +/− SEM: 4 hr, thrombin 200 nM, CDC 126 nM
Method: Boyden Chamber Motility Assays. Disposable transwells (Coming Costar, Cambridge, Mass.) of 6.5 mm diameter and 8 μm pore size were coated with 5 μg/ml laminin on both sides. The membranes were washed twice with Hank's balanced salt solution (HBSS) and then pre-incubated with growth medium containing 10% fetal bovine serum. Trypsinized cells (5×10^4) were plated into the upper well. After 1 hour the upper chamber was washed twice with HBSS, filled with serum-free medium and moved to a new lower chamber, also filled with serum-free medium, with or without thrombin and/or 0.75 nM insulin-like growth factor-1 (IGF-1). After incubation for 4 hrs, cells on the membrane were fixed and stained with a Diff-Quick kit (Baxter Scientific Products). Cells on the upper side were scraped off, the membranes were removed, mounted onto microscope slides and analyzed. Each filter was scanned twice at right angles under the light microscope with a 16×phase contrast objective lens. A continuous series of 20 frames for each filter was digitized using a high-resolution CCD camera (Kodak) and stored in a Power Macintosh computer. The two most peripheral pairs of frames from each scan were deleted so that 12 frames were analyzed for each filter. Cells that had crossed the membrane were counted and tabulated. The sum of the cells counted in the twelve frames was an individual data point.

12-Lox = assay: Eicosanoid (HETE) generation in GCPs; type: biochemical, rat
Method: Eicosanoid Assays. Eicosanoid production in GCPs was measured by metabolic labelling from ^14C-AA or ^14C-AA-PC or by mass spectrometric detection. […] To measure Lox activity directly, without PLA2 involvement, ^3H-AA was the substrate of choice. Reactions were stopped by the addition of chloroform/methanol as for the phospholipase assays. Reaction products were extracted as described by Birkle et al., Neuromethods, vol. 7, pp.227-244 (Humana Press, N.J. 1988), spotted on pre-activated si gel 60 TLC plates, and the plates developed in the upper phase of ethyl acetate/isooctane/acetic acid/water (100:60:20:100). AA and HETEs were identified by co-migration with standards. Appropriate bands were counted by liquid scintillation spectrometry.
For mass-spectrometric (MS) identification of HETEs, two different strategies were pursued:
(1) the appropriate bands from non-labelled samples (PC substrate) were scraped from the TLC plate into ether/methanol (9:1) and stored under N2 at −20° C. Authentic 12(S)-HETE, run alongside in the same manner, was used as a standard. Just prior to analysis, samples were passed over an SPE filter to eliminate silica particles, dried under argon, resuspended in 500 μl ethanol, and injected (at 3 μl/min) into a Finnigan LCQ quadrupole ion trap mass spectrometer (Finnigan MAT, San Jose, Calif.) equipped with an electrospray ionization source. All spectra were acquired at a capillary temperature of 80° C., and ion guide voltages were tuned to maximize the abundance of the deprotonated ion species [M-H]^− in negative mode. In order to generate a spectrum, typically 100 single scans were averaged.
(2) For the other strategy (liquid chromatography/tandem MS, LC/MS^2), the reaction substrate consisted of 3.5 μM AA, with the addition of 3.5 μM deuterated AA (AA-D8) plus 1 μCi ^3H-AA to track reaction products by mass and radioactivity, respectively. Reactions were stopped with ice-cold ethanol, the mixtures kept overnight at −20° C. under N2, and the proteins spun out The supernatants were diluted with H2O and loaded onto 1-ml C18 Sep-Pak columns (Varian). After washing with H2O, eicosanoid was eluted with 2 ml methanol. These samples were resolved by reverse-phase HPLC, and the eluted fractions analyzed by tandem MS on-line (MacMillan and Murphy, 1995). Collision-induced decomposition of HETE isomers produced characteristic fragments that were identified at the second MS stage.

GCPs plated on laminin = assay: GCP release (detachment) assay on laminin; design: species or system rat
Method: GCP Release Assay. Petri dishes (35 mm diameter) were coated with 10 μg mouse laminin in PBS by incubation at room temperature for 60 min with shaking. Dishes were subsequently rinsed three times with PBS to remove unbound laminin and then blocked with 5% non-fat dry milk (Carnation) in PBS for 30 min. After three PBS rinses to remove blocking agent, the dishes were ready for the addition of GCPs. […] After incubation for five min at 37° C. this buffered GCP preparation was added to the laminincoated petri dishes. Contact with the substratum was facilitated by centrifuging the dishes for 15 min at 5000 g (Beckman JS5.2 rotor) at room temperature, followed by incubation at 37° C. to allow adhesion site formation. After 10 min, unattached GCPs were removed by rinsing the dishes twice with 1× modified Krebs buffer. Plated GCPs were then challenged with repellent factor (TRAP or thrombin) for 20 min at 37° C. The supernatant containing released GCPs was collected and centrifuged for protein determination of the pellet. GCPs that remained attached after repellent treatment were removed with 5% sodium dodecyl sulfate (SDS) for protein assay. Protein was measured according to Lowry et al. (1951) as modified by Peterson (1983). Results of these experiments were expressed as the percentage of released versus total GCP protein in the assay.

growth cone PLA2 = assay: PLA2 assay in growth cone particles (GCPs); type: biochemical, rat; conditions: for net activity (pmol/min/mg protein), GCPs: Table 3a, 100 nM
Method: Growth Cone Particle (GCP) Isolation. GCPs were prepared as described by Pfenninger et al. (1983) and modified by Lohse et al., Dev. Brain Res., 96:38-96 (1996). Briefly, 18-day fetal brains were homogenized in approximately 8 volumes of 0.32 M sucrose containing 1 mM MgCl2, 2 mM TES buffer, pH 7.3, and 3 μM aprotinin. A low-speed supernatant (1,660 g×15 min) was loaded onto a discontinuous sucrose density gradient With steps of 0.83 M and 2.66 M sucrose containing MgCl2 and TES. The gradients were spun to equilibrium at 242,000 g for 40 min in a vertical rotor (Vti50, Beckman). The GCP fraction at the 0.32/0.83 M sucrose interface was collected and used for the experiments described below.
All assays were run in triplicate.

protein kinase C (PKC) = assay: MARCKS phosphorylation by PKC in isolated GCPs; type: biochemical, rat; conditions: isolated growth cones
Description: FIG. 7A. Thrombin stimulates MARCKS phosphorylation in a 12-LOX-dependent manner. FIG. 7B. 12(S)-HETE stimulates MARCKS phosphorylation by PKC in isolated GCPs. […] Polypeptides were resolved by SDS-PAGE. MARCKS phosphorylation was quantified by phosphorimaging.

For “thrombin: potent growth cone repellent; commercially available thrombin (Sigma); rat thrombin in Boyden assays”, which “effect on cell migration across the membrane” value (MAT-Lu cells; 200 nM in lower well, 4 hrs, serum-free medium) is on record?
Its value is “almost completely suppresses cell migration across the membrane”.

What about the “Mat-Lu cells crossing filter in % of control +/− SEM” value (MAT-Lu cells; Control column (no IGF-1)) of the same substance?
The value was 30.9 +/− 5.7 % of control.

And the “Mat-Lu cells crossing filter in % of control +/− SEM” value (MAT-Lu cells; IGF-1 (0.75 nM))?
The value was 38 +/− 9.2 % of control.

What about the “decrease in control and IGF-1-induced migration across the membrane” value (MAT-Lu cells; at 200 nM) of the same substance?
The value was 70-80%.

What about the “effect on HETE production from AA” value (12-Lox; 3H-AA substrate) of the same substance?
Its value is “does indeed stimulate HETE production from AA”.

What about the “increase of radioactivity co-migrating with 12-HETE above control” value (12-Lox; 14C-AA-PC substrate, thrombin 100 nM) of the same substance?
Its value is “approximately 2.5 fold”.

And the “increase of MS peak at m/z 381 in TLC band co-migrating with 12(S)-HETE” value (12-Lox; GCPs first stimulated with thrombin)?
Its value is about 2 fold.

What about the “increase in generation of compound co-migrating with 12(S)-HETE from 14C-AA-labelled phospholipid, relative to controls” value (12-Lox; growth cones stimulated with thrombin) of the same substance?
Its value is 4-8 fold.

And the “effect on GCP detachment from laminin” value (GCPs plated on laminin; 20 min at 37° C., cytochalasin D 1 μM)?
Its value is “detached from the substratum in a dose-dependent maaner”.

And the “growth cones detached from laminin” value (GCPs plated on laminin; same thrombin concentrations as cPLA2 assays, in presence of calcium, controls 17%)?
The value was “about 46%”.

What about the “concentration at which PLA2 activation saturates” value (growth cone PLA2; AA release from PI) of the same substance?
Its value is “about 250 nM”.

What about the “net activity (pmol/min/mg protein), GCPs” value (growth cone PLA2; substrate PE) of the same substance?
Its value is 210.2 ± 4.8 pmol/min/mg protein.

And the “net activity (pmol/min/mg protein), GCPs” value (growth cone PLA2; substrate PI)?
Its value is 262 ± 47 pmol/min/mg protein.

And the “net activity (pmol/min/mg protein), no DTT” value (growth cone PLA2; Table 3b, GCPs, substrate PI, thrombin 100 nM)?
The value was 221 ± 39.9 pmol/min/mg protein.

What about the “net activity (pmol/min/mg protein), 50 nM DTT” value (growth cone PLA2; Table 3b, GCPs, substrate PI, thrombin 100 nM or control) of the same substance?
The value was 223 ± 53.4 pmol/min/mg protein.

What about the “net activity (pmol/min/mg protein)” value (growth cone PLA2; Table 3c, GCPs, substrate PI, BDNF 100, IGF-1 0.75, insulin 1, thrombin 200 nM, control 159 ± 6.2) of the same substance?
Its value is 355 ± 28.0 pmol/min/mg protein.

And the “stimulation of PC-hydrolyzing cPLA2 (14C-AA release from PC)” value (growth cone PLA2; thrombin 100 nM, GCPs)?
The value was “about 7 fold”.

And the “stimulation of cPLA2-PE (14C-AA release from PE)” value (growth cone PLA2; thrombin 100 nM, GCPs)?
The value was about 7 fold.

And the “stimulation of cPLA2-PI (14C-AA release from PI)” value (growth cone PLA2; thrombin 100 nM, GCPs)?
Its value is “about 5 fold”.

And the “stimulation of PC-hydrolyzing cPLA2 (14C-AA release from PC)” value (growth cone PLA2; thrombin 100 nM, GCPs, listed as Thrombin)?
The value was about 7 fold.

What about the “stimulation of MARCKS and GAP43 phosphorylation” value (protein kinase C (PKC)) of the same substance?
Its value is “stimulates MARCKS and GAP43 phosphorylation”.
